≈ marks a conversion by molar mass, not a printed value. Entries after “also recorded” stand apart in the source; their conditions may differ.
Experiments:
[1] = test system: Enterobacter sp. 1; test: MIC, micro broth dilution in Muller Hinton broth (CLSI), Table 1B; format: cell-based; settings: read-out: Minimum Inhibitory Concentration
Protocol: (§1) Besifloxacin HCL was tested against ampicillin and cefotaxime (3rd generation cephalosporin) susceptible and resistant gram-negative bacterial strains involved in GNF (gram negative folliculitis) by broth dilution method as per the Clinical & Laboratory Standards Institutes (CLSI) guidelines. MIC assay was performed in 96 well plates by micro broth dilution method, in 96 well plates, all the wells were added with 100 μl of sterilized Muller Hinton broth No: 2 cation broth (HiMedia, India). The initial stock of test compounds (1 mg/ml) were prepared in dimethyl sulfoxide (DMSO) and further dilutions were made in culture broth to get the desirable concentration. Then 100 μl of broth containing test compounds were initially added to the first column's wells and then serial dilution was performed up to well of 10th column. Wells of 11th and 12th column served as a positive and negative control respectively. Finally, 100 μl of inoculum (0.5 McFarland equal bacterial suspension was 100 times diluted in culture broth) was added to all the wells. Plates were incubated at 37° C. for 18-24 hrs. After incubation, MIC of each test compound was determined by observing the lowest concentration of test compound that has no visual growth compared to growth control. Minimum inhibitory concentration of besifloxacin, ampicillin and cefotaxime against gram negative bacterial strains were shown in Table 1.

[2] = test system: Enterobacter sp. 2; test: as above; format: cell-based; settings: read-out: Minimum Inhibitory Concentration
Protocol: as §1

[3] = test system: Klebsiella sp. 498; test: as above; format: cell-based; settings: read-out: Minimum Inhibitory Concentration
Protocol: as §1

[4] = test system: Enterobacter sp. 523; test: as above; format: cell-based; settings: read-out: Minimum Inhibitory Concentration
Protocol: as §1

[5] = test system: Acinetobacter sp. 488; test: as above; format: cell-based; settings: read-out: Minimum Inhibitory Concentration
Protocol: as §1

[6] = test system: Escherichia coli 591; test: as above; format: cell-based; settings: read-out: Minimum Inhibitory Concentration
Protocol: as §1

[7] = test system: Pseudomonas sp. 537; test: as above; format: cell-based; settings: read-out: Minimum Inhibitory Concentration
Protocol: as §1

[8] = test system: Klebsiella sp. 512; test: as above; format: cell-based; settings: read-out: Minimum Inhibitory Concentration
Protocol: as §1

[9] = test system: Enterobacter sp. 532; test: as above; format: cell-based; settings: read-out: Minimum Inhibitory Concentration
Protocol: as §1

[10] = test system: Pseudomonas sp. 556; test: as above; format: cell-based; settings: read-out: Minimum Inhibitory Concentration
Protocol: as §1

[11] = test system: Escherichia coli 592; test: as above; format: cell-based; settings: read-out: Minimum Inhibitory Concentration
Protocol: as §1

[12] = test system: microorganisms that cause gram-negative folliculitis; test: MIC, summary statements on gram-negative bacteria involved in GNF; format: cell-based; settings: for Activity against gram-negative bacterial strains involved in GNF (in words): irrespective of response to other conventional antibiotics or quinolones, ampicillin/cefotaxime susceptible and resistant strains
Protocol: (§2) MIC of besifloxacin and other antibiotics molecules were determined by micro broth dilution method as per the Clinical and Laboratory Standards Institute (CLSI) guideline. MIC assay is the determinant of the inherent anti-microbial potency of a particular molecule. For preparing inoculum, bacterial strains were cultured in Brain Heart Infusion Agar (BHIA) at 37° C. for 24 hours. […] For bacterial inoculum, bacterial culture turbidity was adjusted to 0.1 OD at 600 nm in UV-Visual spectrophotometer (approximately 1.5×10^8 cells/ml) and further diluted (100 times with sterile BHI broth). Diluted bacterial suspension (100 μl) was added to each well except sterility control wells (column 12 of 96 well plate). Column 11 of 96 well plate was used as growth control and vehicle control. The plates were incubated at 37° C. for 24 h. The MIC of the test compounds were determined by observing the lowest concentration of test compound that prevented the visual bacterial growth.
as §1

[13] = test system: skin resident bacteria isolated from acne lesions; test: MIC, summary statements on skin resident bacteria of acne patients; format: cell-based
Excerpt: Moreover, as the MIC values are low and within a narrow range, the chance of future resistance generation due to sub optimal drug delivery in skin is also substantially lower.
Different skin resident bacteria were isolated from acne lesions of moderate to severe acne patients. As expected, P. acnes and S. epidermidis were two most prevalent species. Members of the skin microbiomes were of diverse nature. Most of the genus were gram positive, but few of them, like Klebsiella, were gram negative. Most of them were aerobic, but few, like P. acnes, were anaerobic in nature. […] Even if they are present in low numbers in microbiomes, they can act as reservoirs of resistance against antibiotic of choice which may in the log run affect the prognosis of GNF.

[14] = test system: P. aeruginosa CCARM 2204 (multi-drug resistant, quinolone susceptible); test: MIC, micro broth dilution (CLSI), Table 1A; format: cell-based; settings: Pseudomonas aeruginosa, CCARM2204
Protocol: as §2

[15] = test system: E. coli ATCC BAA 196 (multi-drug resistant strain); test: MIC, micro broth dilution (CLSI), Table 1A; format: cell-based; settings: Escherichia coli, BAA196
Protocol: as §2

[16] = test system: A. baumannii CCARM 12001 (Quinolone resistant strain); test: MIC, micro broth dilution (CLSI), Table 1A; format: cell-based; settings: Acinetobacter baumannii, CCARM12001
Protocol: as §2

[17] = test system: A. haumannii ATCC 19606 (wild type); test: MIC, micro broth dilution (CLSI), Table 1A; format: cell-based; settings: Acinetobacter baumannii, ATCC19606
Protocol: as §2

[18] = test system: P. aeruginosa ATCC 27853 (wild type); test: MIC, micro broth dilution (CLSI), Table 1A; format: cell-based; settings: Pseudomonas aeruginosa, ATCC27853
Protocol: as §2

[19] = test system: K. pneumoniae ATCC 13883 (wild type); test: MIC, micro broth dilution (CLSI), Table 1A; format: cell-based; settings: Klebsiella pneumoniae, ATCC13883
Protocol: as §2

[20] = test system: A. baumannii CCARM 12020 (multi-drug resistant, quinolone susceptible); test: MIC, micro broth dilution (CLSI), Table 1A; format: cell-based; settings: Acinetobacter baumannii, CCARM12020
Protocol: as §2

[21] = test system: E. coli MTCC 1687 (wild type); test: MIC, micro broth dilution (CLSI), Table 1A; format: cell-based; settings: Escherichia coli, MTCC1687
Protocol: as §2

[22] = test system: Blastococcus sp. S21A-2; format: cell-based; settings: Blastococcus sp. S21A-2, isolated from acne lesions
Protocol: as §2
(§3) Different skin resident bacteria were isolated from acne lesions of moderate to severe acne patients.

[23] = Skin penetration/retention on human abdominal skin, Franz-type diffusion cells; format: in vitro ADME; settings: human epidermal membranes, 12 hr, approximately 10 mg/cm^2 of approximately 1.0% formulation
Protocol: Besifloxacin gel and cream containing suspended besifloxacin were tested for skin retention study on human abdominal skin. Besifloxacin gel and cream were applied over a 12 hr application period. Heat-separated epidermal membranes from a single donor were mounted in horizontal Franz-type diffusion cells (exposed surface area 1.33 cm2) over a receptor solution of phosphate buffered saline, pH 7.4 containing 5% ethanol to facilitate solubilisation of any material penetrating the skin. Cells were maintained at 35° C. and receptor solution was stirred throughout. Formulations containing approximately 1.0% besifloxacin w/w and applied at a dose of approximately 10 mg/cm^2. The samples of the receptor solution were taken at times up to 12 hrs and extracts from surface swabs, stratum corneum tape strips and residual epidermis were obtained at the end of the experiment at 12 hrs. All samples were analysed by validated LCMS.
Besifloxacin gel containing suspended besifloxacin was tested for skin retention study on human abdominal skin. Testing procedure was similar to example 27.

[24] = test system: Dermatobacter hominis S11-2; test: MIC against bacteria isolated from acne lesions, Table 2; format: cell-based; settings: S112; Dermatobacter hominis S11-2, isolated from acne lesions; read-out: Minimum Inhibitory Concentration
Protocol: as §2, §3

[25] = test system: Staphylococcus haemolyticus M1-1; test: as above; format: cell-based; settings: M11; Staphylococcus haemolyticus M1-1, isolated from acne lesions; read-out: Minimum Inhibitory Concentration
Protocol: as §2, §3

[26] = test system: Enterobacter aerogenes M2-1; test: as above; format: cell-based; settings: Klebsiella aerogenes, M21; Enterobacter aerogenes M2-1, isolated from acne lesions; read-out: Minimum Inhibitory Concentration
Protocol: as §2, §3

[27] = test system: Microbacterium sp. S20-2; test: as above; format: cell-based; settings: Microbacterium sp. S20-2, isolated from acne lesions
Protocol: as §2, §3

[28] = test system: Kocuria sp. S18-1; test: as above; format: cell-based; settings: SP.S181; Kocuria sp. S18-1, isolated from acne lesions; read-out: Minimum Inhibitory Concentration
Protocol: as §2, §3

[29] = test system: Bacillus megaterium M1-2.; test: as above; format: cell-based; settings: Priestia megaterium, M12., read-out: Minimum Inhibitory Concentration
Protocol: as §2, §3

[30] = test system: K. pneumoniae S6-1; test: as above; format: cell-based; settings: Klebsiella pneumoniae, S61; K. pneumoniae S6-1, isolated from acne lesions; read-out: Minimum Inhibitory Concentration
Protocol: as §2, §3

[31] = test system: S. epidermidis S1-1; test: as above; format: cell-based; settings: Staphylococcus epidermidis, S11; S. epidermidis S1-1, isolated from acne lesions; read-out: Minimum Inhibitory Concentration
Protocol: as §2, §3

[32] = test system: P. avidum S3-1; test: as above; format: cell-based; settings: Cutibacterium avidum, S31; P. avidum S3-1, isolated from acne lesions; read-out: Minimum Inhibitory Concentration
Protocol: as §2, §3

[33] = test system: P. acnes V3-1; test: as above; format: cell-based, Propionibacterium acnes; settings: Cutibacterium acnes, V31; P. acnes V3-1, isolated from acne lesions; read-out: Minimum Inhibitory Concentration
Protocol: as §2, §3

[34] = test system: E. aerogenes NCIM 5139 (wild type); test: MIC, micro broth dilution (CLSI), Table 1A; format: cell-based, Enterobacter aerogenes; settings: Klebsiella aerogenes, NCIM5139
Protocol: as §2

[35] = test system: E. aerogenes M2-1 (clinical isolate); test: MIC, micro broth dilution (CLSI), Table 1A; format: cell-based, Enterobacter aerogenes; settings: Klebsiella aerogenes
Protocol: as §2

CC1(C)S[C@@H]2[C@H](NC(=O)[C@H](N)c3ccccc3)C(=O)N2[C@H]1C(=O)O [Ampicillin]
MIC [1]: > 128 µg/mL
MIC [2]: 2 µg/mL (≈ 5.72 µM)
MIC [3]: > 128 µg/mL
MIC [4]: > 128 µg/mL
MIC [5]: > 128 µg/mL
MIC [6]: 4 µg/mL (≈ 11.4 µM)
MIC [7]: > 128 µg/mL
MIC [8]: 32 µg/mL (≈ 91.6 µM)
MIC [9]: > 128 µg/mL
MIC [10]: > 128 µg/mL
MIC [11]: > 128 µg/mL

N[C@@H]1CCCCN(c2c(F)cc3c(=O)c(C(=O)O)cn(C4CC4)c3c2Cl)C1 [Besifloxacin]
Activity against gram-negative bacterial strains involved in GNF (in words) [12]: very effective; also recorded: efficacious
Activity against gram-negative bacterial strains involved in GNF (in words) ([12]; listed as besifloxacin): susceptible
MIC ([12]; range over strains, read-out: MIC of besifloxacin against microorganisms that cause gram-negative folliculitis): 0.125 to 16 µg/mL
MIC better (lower) compared with conventional antibiotics ([12]; vs cefotaxime, ampicillin, clindamycin, tetracycline and erythromycin): at least 50%
Activity against skin resident bacteria isolated from acne lesions (in words) ([13]; Table 2 isolates): potent antibacterial activity
isolates demonstrating resistance to besifloxacin ([13]; micro broth dilution assay, acne patients or healthy individuals): none
MIC [14]: 4 µg/mL (≈ 10.2 µM)
MIC [15]: 1 µg/mL (≈ 2.54 µM)
MIC [16]: 2 µg/mL (≈ 5.08 µM)
MIC [17]: 1 µg/mL (≈ 2.54 µM)
MIC [18]: 0.5 µg/mL (≈ 1.27 µM)
MIC [19]: 0.25 µg/mL (≈ 0.635 µM)
MIC [20]: 4 µg/mL (≈ 10.2 µM)
MIC [21]: 0.125 µg/mL (≈ 0.317 µM)
Minimum Inhibitory Concentration [22]: 0.06 µg/mL
besifloxacin recovered from receptor solution [23]: negligible amounts
MIC [24]: 1 µg/mL (≈ 2.54 µM)
MIC [25]: 0.13 µg/mL (≈ 0.33 µM)
MIC [26]: 0.25 µg/mL (≈ 0.635 µM)
Minimum Inhibitory Concentration [27]: 0.5 µg/mL
MIC [28]: 0.5 µg/mL (≈ 1.27 µM)
MIC [29]: 0.02 µg/mL (≈ 0.0508 µM)
MIC [30]: 1 µg/mL (≈ 2.54 µM)
MIC [31]: 0.25 µg/mL (≈ 0.635 µM)
MIC [32]: 0.5 µg/mL (≈ 1.27 µM)
MIC [33]: 0.5 µg/mL (≈ 1.27 µM)
MIC [1]: 16 µg/mL (≈ 40.6 µM)
MIC [2]: 1 µg/mL (≈ 2.54 µM)
MIC [3]: 16 µg/mL (≈ 40.6 µM)
MIC [4]: 0.5 µg/mL (≈ 1.27 µM)
MIC [5]: 2 µg/mL (≈ 5.08 µM)
MIC [6]: 0.125 µg/mL (≈ 0.317 µM)
MIC [7]: 1 µg/mL (≈ 2.54 µM)
MIC [8]: 0.25 µg/mL (≈ 0.635 µM)
MIC [9]: 16 µg/mL (≈ 40.6 µM)
MIC [10]: 1 µg/mL (≈ 2.54 µM)
MIC [11]: 0.5 µg/mL (≈ 1.27 µM)
MIC [34]: 0.125 µg/mL (≈ 0.317 µM)
MIC [35]: 0.125 µg/mL (≈ 0.317 µM)

Reference: patent US20210393520A1, “TREATMENT OF GRAM-NEGATIVE FOLLICULITIS OR AN INFLAMMATION THEREOF WITH BESIFLOXACIN” (VYOME THERAPEUTICS LIMITED, priority 2018, published 2021)
